In patent US20060241108A1, “Substituted phenoxazines and acridones as inhibitors of AKT” (St. Jude Children's Research Hospital, priority 2005, published 2006):

Tests used:
Format in all cases: cell-based, human
AKT = test: Inhibition of IGF-I stimulated AKT phosphorylation (Ser473) in Rh1 cells, Western blot; settings: for Inhibition (phosphorylation of AKT at Ser 473): 5 μM, 1 hour, serum starved Rh1 cells, IGF-I 10 ng/ml 10 minutes, average of two experiments; for inhibition of cellular AKT activation: at the concentrations examined in this assay (1-5 μM)
Protocol: Cell lines and growth conditions. The human cell lines Rh1, Rh18, and Rh30 (ATCC Deposit # CRL 2061) have been described, e.g., by Hazelton et al. Cancer Res 1987;47:4501-4507 and Hosoi et al. Cancer Res. 1999;59:886-894. Rh1, Rh18 and Rh30 cells can each be grown in antibiotic free RPMI-1640 medium (available from BioWhittaker, Walkersville, Md.), supplemented with 10% fetal bovine serum (available from HyClone Laboratories, Logan, Utah) and 2 mM L-glutamine (available from BioWhittaker, Walkersville, Md.) at 37° C. in an atmosphere of 5% CO2. For serum free experiments, cells can be cultured in modified N2E (MN2E) medium (DMEM/F-12, 1:1 mixture) (Sigma, St. Louis, Mo.) supplemented with 1 μg/ml human holo transferrin, 30 nM sodium selenite, 20 nM progesterone, 100 μM putrescine, 30 nM vitamin E phosphate, and 50 μM ethanolamine. Cells in MN2E medium containing 5 μg/ml bovine fibronectin (available from Sigma, St. Louis, Mo.) are preferably plated, and allowed to attach overnight at 37° C. in a humidified, 5% CO2 atmosphere.
(§1) Cellular screening for inhibitors. Rh1, Rh18 and Rh30 cells can each be seeded at a density of 4×10^6/10-cm plate in serum-free medium for overnight attachment. The cells can then be exposed to 0.1% DMSO or to a test compound (for example, a phenoxazine or acridone compound) for one hour, then stimulated with Insulin-like growth factor-I (IGF-I) (10 ng/ml) for 10 minutes.
(§2) Western blot analysis. Cells are rapidly washed with ice-cold phosphate-buffered saline (PBS), placed on ice, and lysed in mammalian protein extraction reagent (M-PER; available from Pierce, Rockford, Ill.) containing one Complete™ mini protease inhibitor tablet (available from Boehringer Mannheim, Mannheim, Germany), 1 mM phenylmethylsulfonyl fluoride, 1 mM Na3VO4 and 1 mM NaF. Cellular debris is pelleted by centrifugation at 17,500×g for 10 minutes at 4° C. The protein concentration of the supernatants is measured by the bicinchoninic acid assay (e.g., using the BCA™ Protein Assay Kit, Pierce, Rockford, Ill., catalog number 23225 or 23227) using bovine serum albumin as the standard.
For the analysis of AKT, ERK-1/2, mTOR, p70S6 kinase, ribosomal protein S6 (rpS6 or S6), and glycogen synthase kinase 3 (GSK-3), equivalent amounts of protein can be separated on a 12% SDS-polyacrylamide gel (available from BioRad, Hercules, Calif.) by electrophoresis and subsequently transferred to a nitrocellulose membrane (also available from BioRad). After a 1 hour incubation in 1×TBS containing 0.05% Tween 20 and 5% blocking reagent (skim milk) (available from Upstate Biotechnology, Lake Placid, N.Y.) at room temperature, the wet nitrocellulose membranes are incubated with appropriate antibodies (available from Cell Signaling Technology, Beverly, Mass.): rabbit polyclonal antiserum specific for the phosphorylated Ser473 or Thr308 of AKT (dilution 1:1000); rabbit polyclonal antiserum specific for phosphorylated Thr202/Tyr204 of ERK-1/2 (dilution 1:1000); rabbit polyclonal antiserum specific for phosphorylated Ser2448 or Ser2481 of mTOR (dilution 1:1000); rabbit polyclonal antiserum specific for phosphorylated Thr389 of p70S6 kinase (dilution 1:4000); rabbit polyclonal antiserum specific for phosphorylated Ser235/236 of rpS6 (dilution 1:1000); or rabbit polyclonal antiserum specific for phosphorylated Ser21/9 of GSK-3α/β (dilution 1:1000). Horseradish peroxidase-conjugated goat anti-rabbit IgG antibody (dilution 1:10,000) can be used as the secondary antibody. Immunoreactive protein can be visualized using Renaissance chemiluminescence reagent (available from Life Science Products Inc., Boston, Mass.).
For these assays, Rh1 cells are seeded in serum-free medium for overnight attachment. The serum starved Rh1 cells are then exposed to 1-5 μM of a compound in Table I for 1 hour before stimulating with IGF-I (10 ng/ml) for 10 minutes. […]

[1] = system: mTOR (Ser2448 and Ser2481), rpS6 (Ser235/236) and p70S6 kinase (Thr389); test: IGF-I induced phosphorylation of AKT downstream targets in Rh1 cells, Western blot; settings: 3.5 to 5.0 μM, 1 hour, Rh1 cells serum-free, IGF-I 10 minutes
Protocol: as §1, §2
For the analysis of AKT, ERK-1/2, mTOR, p70S6 kinase, ribosomal protein S6 (rpS6 or S6), and glycogen synthase kinase 3 (GSK-3), equivalent amounts of protein can be separated on a 12% SDS-polyacrylamide gel (available from BioRad, Hercules, Calif.) by electrophoresis and subsequently transferred to a nitrocellulose membrane (also available from BioRad). […]

[2] = system: Rh1, Rh18 and/or Rh30 cells; test: Determination of apoptosis, cell line not specified for the result
From the text: Determination of apoptosis.
Similar experiments can be performed using compounds that are relatively poor inhibitors of AKT in vitro but, preferably, are chemically similar to the phenoxazine or other compounds tested that are effective inhibitors of AKT. For example, the apoptosis of cells in response to the phenoxazine compound 12B or 20B, which are relatively poor inhibitors of AKT in vitro, can be compared to apoptosis of cells in response to the chemically similar compounds 10B and/or 15B, which are effective AKT inhibitors. In this way, a skilled practitioner can evaluate whether apoptosis observed in response to an effective AKT inhibitor (e.g., apoptosis observed in response to compound 10B or 15B) is due to a general toxic effect rather than AKT inhibition.

| Compound | Inhibition (phosphorylation of AKT at Ser 473) (AKT) | inhibition of cellular AKT activation (AKT) | inhibition of IGF-I induced phosphorylation of mTOR, rpS6 and p70S6 kinase [1] | induction of apoptosis [2] |
| --- | --- | --- | --- | --- |
| OCCN(CCO)CCCCN1c2ccccc2Oc2ccc(C(F)(F)F)cc21 [Compound 11C, 10-[4′-[N-bis(hydroxyethyl)amino]butyl]-2-trifluoromethyl phenoxazine] | +++ (+++ ≈ 75% inhibition) | minimal inhibition |  |  |
| FC(F)(F)c1ccc2c(c1)N(CCCN1CCOCC1)c1ccccc1O2 [Compound 5C, 10-(3′-N-morpholinopropyl)-2-trifluoromethylphenoxazine] | −−− (−−− <25% inhibition) | minimal inhibition |  |  |
| 10-[4′-[(β-hydroxyethyl piperazino]butyl]-phenoxazine [Compound 15A] | +++ (+++ ≈ 75% inhibition) | minimal inhibition |  |  |
| c1ccc(CNCCCN2c3ccccc3Oc3ccccc32)cc1 [Compound 22A, 10-(3′-N-benzylaminopropyl)-phenoxazine] | +++ (+++ ≈ 75% inhibition) | minimal inhibition |  |  |
| 10-[3′-[(β-hydroxyethyl)piperazino]propyl]-2-chlorophenoxazine [Compound 8B] | +++ (+++ ≈ 75% inhibition) |  | markedly inhibited |  |
| Clc1ccc2c(c1)Nc1ccccc1O2 [Compound 1B, 2-chlorophenoxazine] | + (+ ≈ 25% inhibition) |  |  |  |
| 10-(4′-N-piperidinobutyl)-2-chlorophenoxazine [Compound 13B] | +++ (+++ ≈ 75% inhibition) |  |  | significant increase in the proportion of apoptotic cells |
| CCN(CC)CCCN1c2ccccc2Oc2ccc(Cl)cc21 [Compound 3B, 10-[3′-(N-diethylamino)-propyl]-2-chlorophenoxazine] | ++ (++ ≈ 50% inhibition) |  |  |  |
| OCCN(CCO)CCCN1c2ccccc2Oc2ccc(Cl)cc21 [Compound 4B, 10-[3′-[N-bis(hydroxyethyl)amino]propyl]-2-chlorophenoxazine] | ++ (++ ≈ 50% inhibition) |  |  |  |
| OCCN(CCO)CCCN1c2ccccc2Oc2ccccc21 [Compound 4A, 10-[3′-[N-bis(hydroxyethyl)amino]propyl]phenoxazine] | ++ (++ ≈ 50% inhibition) | minimal inhibition |  |  |
| CCN(CC)CC(=O)N1c2ccccc2Oc2ccc(Cl)cc21 [Compound 17B, 10-[(N-diethylamino)acetyl]-2-chlorophenoxazine] | −−− (−−− <25% inhibition) |  |  |  |
| O=C(CN1CCOCC1)N1c2ccccc2Oc2ccc(Cl)cc21 [Compound 18B, 10-(N-morpholinoacetyl)-2-chlorophenoxazine] | −−− (−−− <25% inhibition) |  |  |  |
| OCCN(CCO)CCCCN1c2ccccc2Oc2ccccc21 [Compound 11A, 10-[4′-[N-bis(hydroxyethyl)amino]-butyl]phenoxazine] | +++ (+++ ≈ 75% inhibition) | minimal inhibition |  |  |
| 10-[[(β-hydroxyethyl) piperazino]acetyl]-2-chlorophenoxazine [Compound 21B] | −−− (−−− <25% inhibition) |  |  |  |
| 10-(4′-N-pyrrolidinobutyl)-phenoxazine [Compound 14A] | +++ (+++ ≈ 75% inhibition) | minimal inhibition |  |  |
| 10-(4′-N-piperidinobutyl)-2-trifluoromethylphenoxazine [Compound 13C] | +++ (+++ ≈ 75% inhibition) | minimal inhibition |  |  |
| 10-(3′-N-piperidinopropyl)-2-chlorophenoxazine [Compound 6B] | ++ (++ ≈ 50% inhibition) |  |  |  |
| 10-(3′-N-pyrrolidinopropyl)-2-chlorophenoxazine [Compound 7B] | +++ (+++ ≈ 75% inhibition) |  |  |  |
| 10-(4′-N-pyrrolidinobutyl)-2-chlorophenoxazine [Compound 14B] | +++ (+++ ≈ 75% inhibition) |  |  | significant increase in the proportion of apoptotic cells |
| OCCN(CCO)CCCCN1c2ccccc2Oc2ccc(Cl)cc21 [Compound 11B, 10-[4′-[N-bis(hydroxyethyl)amino]butyl]-2-chlorophenoxazine] | +++ (+++ ≈ 75% inhibition) |  |  | significant increase in the proportion of apoptotic cells |
| O=C(CCl)N1c2ccccc2Oc2ccc(Cl)cc21 [Compound 16B, 10-(chloroacetyl)-2-chlorophenoxazine] | −−− (−−− <25% inhibition) |  |  |  |
| Clc1ccc2c(c1)N(CCCCN1CCOCC1)c1ccccc1O2 [Compound 12B, 10-(4′-N-morpholinobutyl)-2-chlorophenoxazine] | −−− (−−− <25% inhibition) |  |  | neither the compound 12B or 20B |
| Clc1ccc2c(c1)N(CCCN1CCOCC1)c1ccccc1O2 [Compound 5B, 10-(3′-N-morpholinopropyl)-2-chlorophenoxazine] | −−− (−−− <25% inhibition) |  |  |  |
| ClCCCCN1c2ccccc2Oc2ccc(Cl)cc21 [Compound 9B, 10-(4′-chlorobutyl)-2-chlorophenoxazine] | −−− (−−− <25% inhibition) |  |  |  |
| O=C(CN1CCCCC1)N1c2ccccc2Oc2ccc(Cl)cc21 [Compound 19B, 10-(N-piperidinoacetyl)-2-chlorophenoxazine] | −−− (−−− <25% inhibition) |  |  |  |
| c1ccc2c(c1)Oc1ccccc1N2CCCN1CCCC1 [Compound 8A, 10-(3′-N-pyrrolidinopropyl)-phenoxazine] | ++ (++ ≈ 50% inhibition) | minimal inhibition |  |  |
| ClCCCN1c2ccccc2Oc2ccc(Cl)cc21 [Compound 2B, 10-(3′-chloropropyl)-2-chlorophenoxazine] | −−− (−−− <25% inhibition) |  |  |  |
